Laboratory results reported in patent publication US4367287A, “Process of producing antibiotic AR-5 complex” (Schering Corporation, priority 1981, dated 1983).
Like-named read-outs stand apart in the source and are kept apart here.

Tests used:
Acute toxicity in mice = settings: mouse, in vivo, male CF-1 mice, survivors at 24 and 48 hours
Protocol: The acute toxicity determinations were carried out with groups of male (Carworth CF-1) mice weighing 18-20 g. LD50 values […] the dose that was lethal to 50% of the mice) were calculated by probit analysis based on the number of survivors at 24 and 48 hours after dosing.

[1] = system: Antibiotic AR-5 Resistant strains; assay: In vivo mouse protection test, Antibiotic AR-5 resistant strains; parameters: species or system male (Carworth CF-1) mice; settings: read-out: Mean PD50
Protocol: (§1) In vivo mouse protection tests were performed in male (Carworth CF-1) mice weighing 18-20 g each. Infection was with about 10^7 organisms per mouse or sufficient inocula to cause death of control groups 24 to 48 hours after infection. The infecting organisms included strains of Staphylococcus Enterococcus, β-hemolytic Streptococcus and E. coli.

[2] = system: Antibiotic AR-5 Sensitive strains; assay: In vivo mouse protection test, Antibiotic AR-5 sensitive strains; parameters: species or system male (Carworth CF-1) mice; settings: for ED50: Mus musculus, Antibiotic AR-5 sensitive strains, number of strains averaged in parentheses, read-out: Mean PD50; for oral potency relative to erythromycin and rosaramicin (fold more potent): in vivo PD50, in general
Protocol: as §1

[3] = Serum levels of the antibiotics; type: in vivo; settings: mice, rats and dogs
Protocol: The serum levels of the respective antibiotics were measured in mice, rats and dogs.

M. polytrota = assay: Antibiotic susceptibility of producing strain; type: cell-based, Micromonospora polytrota; settings: for Growth in the presence of 50 mcg/ml antibiotic: M. polytrota; for sensitivity of M. polytrota: concentration not given
Protocol: Test antibiotics were dissolved in the appropriate solvent at a concentration based on an activity of 1000 mcg/ml. Stock solutions were diluted in sterile distilled water to a final concentration of 500 mcg/ml and filter sterilized ([…] filters, Millipore Corporation). To 10 ml of the sterile antibiotic solutions, 90 ml of melted agar consisting of yeast extract, 10 g; dextrose, 10 g; agar, 15 g; tap water, 1000 ml; […] cooled to 45° C. was added, and 20 ml of the resulting mixture was aseptically pipetted into sterile petri dishes (100×150 mm). The final concentration of each antibiotic in the agar was 50 mcg/ml.

## CCC1OC(=O)/C=C/C(C)C(OC2OC(C)CC(N(C)C)C2O)C(C)CC(C)C(=O)/C=C/C2OC2C1(O)COC1OC(C)C(O)C(OC)C1OC (stereo not drawn) [C, Antibiotic AR-5 component 2]
Acute toxicity in mice; ip
  LD50: 610 mg/kg
Acute toxicity in mice; iv
  LD50: 310 mg/kg
[1]; po
  ED50: 100 mg/kg
[1]; sc
  ED50: 100 mg/kg
[2]; sc
  ED50: 5.1 mg/kg
[2]; oral
  ED50: 35.8 mg/kg
[3]; versus the other antibiotics tested
  time of peak serum levels: produces peak serum levels earlier than any of the other antibiotics tested

## CN[C@@H]1[C@@H](O)[C@@H](O[C@@H]2[C@@H](O)[C@H](O[C@H]3OC(CN)=CC[C@H]3N)[C@@H](N)C[C@H]2N)OC[C@]1(C)O [Sisomicin]
M. polytrota
  Growth in the presence of 50 mcg/ml antibiotic: grows

## CCC[C@@H]1C[C@@H](C(=O)N[C@@H]([C@H]2O[C@H](SC)[C@H](O)[C@@H](O)[C@H]2O)[C@@H](C)O)N(C)C1 [Lincomycin]
M. polytrota
  Growth in the presence of 50 mcg/ml antibiotic: grows

## Gentamicin
M. polytrota
  Growth in the presence of 50 mcg/ml antibiotic: grows

## NC[C@H]1O[C@H](O[C@H]2[C@H](O)[C@@H](O[C@H]3O[C@H](CO)[C@@H](O)[C@H](N)[C@H]3O)[C@H](N)C[C@@H]2N)[C@H](O)[C@@H](O)[C@@H]1O [Kanamycin]
M. polytrota
  Growth in the presence of 50 mcg/ml antibiotic: grows

## CC[C@H]1OC(=O)[C@H](C)[C@@H](O[C@H]2C[C@@](C)(OC)[C@@H](O)[C@H](C)O2)[C@H](C)[C@@H](O[C@@H]2O[C@H](C)C[C@H](N(C)C)[C@H]2O)[C@](C)(O)C[C@@H](C)C(=O)[C@H](C)[C@@H](O)[C@]1(C)O [E, Erythromycin, reference compound]
Acute toxicity in mice; ip
  LD50: 355 mg/kg
Acute toxicity in mice; iv
  LD50: 260 mg/kg
[1]; po
  ED50: 400 mg/kg
[1]; sc
  ED50: 100 mg/kg
[2]; sc
  ED50: 13.3 mg/kg
[2]; oral
  ED50: 135 mg/kg

## O=C(N[C@H](CO)[C@H](O)c1ccc([N+](=O)[O-])cc1)C(Cl)Cl [Chloramphenicol]
M. polytrota
  sensitivity of M. polytrota: exhibits sensitivity

## CC[C@H]1OC(=O)C[C@@H](O)[C@H](C)[C@@H](O[C@@H]2O[C@H](C)C[C@H](N(C)C)[C@H]2O)[C@@H](CC=O)C[C@@H](C)C(=O)/C=C/[C@]2(C)O[C@H]2[C@@H]1C [F, Rosaramicin, reference compound]
Acute toxicity in mice; ip
  LD50: 260 mg/kg
Acute toxicity in mice; iv
  LD50: 175 mg/kg
Acute toxicity in mice; oral
  LD50: 1300 mg/kg
[1]; po
  ED50: 400 mg/kg
[1]; sc
  ED50: 100 mg/kg
M. polytrota
  sensitivity of M. polytrota: exhibits sensitivity
[2]; sc
  ED50: 8.3 mg/kg
[2]; oral
  ED50: 181 mg/kg

## CCC1OC(=O)/C=C/C(C)C(OC2OC(C)CC(N(C)C)C2O)C(C)CC(C)C(=O)/C=C/C=C/C1COC1OC(C)C(O)C(OC)C1OC (stereo not drawn) [B, 12,13-desepoxy AR-5 component 1]
Acute toxicity in mice; ip
  LD50: 275 mg/kg
Acute toxicity in mice; iv
  LD50: 160 mg/kg
[1]; po
  ED50: 100 mg/kg
[1]; sc
  ED50: 100 mg/kg
[2]; sc
  ED50: 2.5 mg/kg
[2]; oral
  ED50: 3.8 mg/kg
  oral potency relative to erythromycin and rosaramicin (fold more potent): 30-40 fold

## CCC[C@@H]1C[C@@H](C(=O)N[C@@H]([C@H]2O[C@H](SC)[C@H](O)[C@@H](O)[C@H]2O)[C@H](C)Cl)N(C)C1 [Clindamycin]
M. polytrota
  Growth in the presence of 50 mcg/ml antibiotic: grows

## CCC1OC(=O)/C=C/C(C)C(OC2OC(C)CC(N(C)C)C2O)C(C)CC(C)C(=O)/C=C/C2OC2C1COC1OC(C)C(O)C(OC)C1OC (stereo not drawn) [A, Antibiotic AR-5 component 1]
Acute toxicity in mice; ip
  LD50: 310 mg/kg
Acute toxicity in mice; iv
  LD50: 140 mg/kg
[1]; po
  ED50: 100 mg/kg
[1]; sc
  ED50: 100 mg/kg
[2]; sc
  ED50: 4 mg/kg
[2]; oral
  ED50: 4.1 mg/kg
  oral potency relative to erythromycin and rosaramicin (fold more potent): 30-40 fold
[3]
  duration of therapeutic serum levels: produces therapeutic serum levels of greater duration
